Assay results taken from patent publication US20030050306A1, “Novel heteroaryl derivatives, their preparation and use” (H. Lundbeck A/S, priority 1999, published 2003).

How the values were obtained:
[1] = target: T1, cloned human 5-HT1A receptors (Homo sapiens, UniProt P08908); assay: Inhibition of 3H-5-CT binding to human 5-HT1A receptors; details: cloned human 5-HT1A receptors in HeLa cells (HA7); for inhibition at 0.1 µM / Inhibition of 3H-5-CT Binding % inhibition at 100 nM: at 100 nM
T1 construct: expressed in transfected cells; host or cells: HeLa cells (HA7)
T1 sequence (P08908 1-422): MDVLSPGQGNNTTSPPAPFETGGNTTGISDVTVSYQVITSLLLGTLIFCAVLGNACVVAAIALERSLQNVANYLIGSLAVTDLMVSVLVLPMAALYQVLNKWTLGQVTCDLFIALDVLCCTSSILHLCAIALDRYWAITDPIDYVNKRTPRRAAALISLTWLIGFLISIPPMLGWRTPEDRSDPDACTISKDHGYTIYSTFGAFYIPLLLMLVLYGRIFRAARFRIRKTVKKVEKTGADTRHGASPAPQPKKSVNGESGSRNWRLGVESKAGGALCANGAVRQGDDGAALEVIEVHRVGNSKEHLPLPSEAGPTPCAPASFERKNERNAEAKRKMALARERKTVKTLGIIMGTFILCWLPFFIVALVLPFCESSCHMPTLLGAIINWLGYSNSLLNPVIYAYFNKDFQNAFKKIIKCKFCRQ
Method: The affinity of the compounds of the invention to 5-HT1A receptors was determined by measuring the inhibition of binding of a radioactive ligand at 5-HT1A receptors as described in the following test:
Inhibition of ^3H-5-CT Binding to Human 5-HT1A Receptors
By this method the inhibition by drugs of the binding of the 5-HT1A agonist ^3H-5-carboxamido tryptamine (3H-5-CT) to cloned human 5-HT1A receptors stably expressed in transfected HeLa cells (HA7) (Fargin, A. et al, J. Biol. Chem., 1989, 264, 14848) is determined in vitro. The assay was performed as a modification of the method described by Harrington, M. A. et at, J. Pharmacol. Exp. Ther., 1994, 268, 1098. Human 5-HT1A receptors (40 μg of cell homogenate) were incubated for 15 minutes at 37° C. in 50 mM Tris buffer at pH 7.7 in the presence of ^3H-5-CT. Non-specific binding was determined by including 10 μM of metergoline. The reaction was terminated by rapid filtration through Unifilter GF/B filters on a Tomtec Cell Harvester. Filters were counted in a Packard Top Counter.

[2] = target: T2, human cloned dopamine D4.2 receptors (Homo sapiens, UniProt P21917, DEL265-296); assay: Inhibition of the binding of 3H-YM-09151-2 to human dopamine D4 receptors; details: human cloned dopamine D4.2 receptors in CHO-cells; for inhibition at 0.05 µM / Inhibition of 3H-YM-09151-2 binding % inhibition at 50 nM: at 50 nM
T2 construct: expressed in transfected cells; host or cells: CHO cells
T2 sequence (P21917 with tags, fused parts or gaps DEL265-296): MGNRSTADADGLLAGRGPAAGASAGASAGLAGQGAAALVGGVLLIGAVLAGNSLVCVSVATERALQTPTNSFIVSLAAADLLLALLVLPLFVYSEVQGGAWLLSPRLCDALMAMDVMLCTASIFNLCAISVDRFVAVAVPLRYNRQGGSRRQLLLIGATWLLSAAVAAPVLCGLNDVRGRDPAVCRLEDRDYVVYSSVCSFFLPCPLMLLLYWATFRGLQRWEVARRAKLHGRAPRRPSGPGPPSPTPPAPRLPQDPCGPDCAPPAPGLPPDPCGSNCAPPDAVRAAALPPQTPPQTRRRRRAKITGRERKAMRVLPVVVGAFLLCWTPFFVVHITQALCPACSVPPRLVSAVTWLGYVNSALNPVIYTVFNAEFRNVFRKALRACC
Method: The compounds of the invention have also been tested for their affinity to dopamine D4 receptors in the following test.
Inhibition of the Binding of ^3H-YM-09151-2 to Human Dopamine D4 Receptors
By this method the inhibition by drugs of the binding of [^3H]YM-09151-2 (0.06 nM) to membranes of human cloned dopamine D4.2 receptors expressed in CHO-cells is determined in vitro. Method modified from NEN Life Science Products, Inc., technical data certificate PC2533-10/96.

Compound | inhibition at 0.1 µM [1] [%] | inhibition at 0.05 µM [2] [%] | IC50 [1] [nM] | IC50 [2] [nM] | further results
Cc1cccc(SCCCN2CCN(c3cccc4c3OCCO4)CC2)c1 [Compound 7aq, 1-(2,3-Dihydro-benzo[1,4]dioxin-5-yl)-4-(3-m-tolylsulfanyl-propyl)-piperazine] | 101 | 82 | – | – | –
Fc1cc(Cl)c(OCCCCN2CCN(c3cccc4c3OCCO4)CC2)c(Cl)c1 [Compound 5bp, 1-[4-(2,6-Dichloro-4-fluoro-phenoxy)-butyl]-4-(2,3-dihydro-benzo[1,4]dioxin-5-yl)-piperazine] | – | – | 4.8 | 6.2 | –
Clc1ccc(SCCCCN2CCN(c3cccc4c3OCCO4)CC2)cc1Cl [Compound 7an, 1-[4-(3,4-Dichloro-phenylsulfanyl)-butyl]-4-(2,3-dihydro-henzo[1,4]dioxin-5-yl)-piperazine] | – | – | – | – | Inhibition of 3H-5-CT Binding % inhibition at 100 nM [1]: 100%; Inhibition of 3H-YM-09151-2 binding % inhibition at 50 nM [2]: 91%
C=CCc1cccc(Cl)c1OCCN1CCN(c2cccc3c2OCCO3)CC1 [Compound 7ai, 1-[2-(2-Allyl-6-chloro-phenoxy)-ethyl]-4-(2,3-dihydro-benzo[1,4]dioxin-5-yl)-piperazine] | 90 | 82 | – | – | –
FC(F)(F)c1ccccc1SCCCN1CCN(c2cccc3c2OCCO3)CC1 [Compound 7ak, 1-(2,3-Dihydro-benzo[1,4]dioxin-5-yl)-4-[3-(2-trifluoromethyl-phenylsulfanyl)-propyl]-piperazine] | 93 | 98 | – | – | –
FC(F)(F)Oc1ccc(SCCCN2CCN(c3cccc4c3OCCO4)CC2)cc1 [Compound 7bj, 1-(2,3-Dihydro-benzo[1,4]dioxin-5-yl)-4-[3-(4-trifluoromethoxy-phenylsulfanyl)-propyl]-piperazine] | 106 | 92 | – | – | –
N#Cc1ccccc1OCCCN1CCN(c2cccc3c2OCCO3)CC1 [Compound 2d, 2-{3-[4-(2,3-Dihydro-benzo[1,4]dioxin-5-yl)-piperazin-1-yl]-propoxy}-benzonitrile] | – | – | 15 | 1.7 | –
Fc1ccccc1OCCCN1CCN(c2cccc3c2OCCO3)CC1 [Compound 2c, 1-(2,3-Dihydro-benzo[1,4]dioxin-5-yl)-4-[3-(2-fluoro-phenoxy)-propyl]-piperazine] | – | – | 4 | 1.2 | –
Cc1ccccc1SCCN1CCN(c2cccc3c2OCCO3)CC1 [Compound 7bo, 1-(2,3-Dihydro-benzo[1,4]dioxin-5-yl)-4-(2-o-tolylsulfanyl-ethyl)-piperazine] | 91 | 102 | – | – | –
Fc1cc(F)c(OCCCN2CCN(c3cccc4ccsc34)CC2)c(Br)c1 [Compound 5bt, 1-Benzo[h]thiophen-7-yl-4-[3-(2-bromo-4,6-difluoro-phenoxy)-propyl]-piperazine] | – | – | 8.6 | 6.3 | –
Fc1cc(Br)c(OCCCCN2CCN(c3cccc4c3OCCO4)CC2)c(Br)c1 [Compound 5by] | – | – | 2.5 | 4.3 | –
Fc1cc(Br)cc(F)c1OCCCCN1CCN(c2cccc3c2OCCO3)CC1 [Compound 5bz, 1-[4-(4-Bromo-2,6-difluoro-phenoxy)-butyl]-4-(2,3-dihydro-benzo[1,4]dioxin-5-yl)-piperazine] | – | – | 5 | 10 | –
COc1c(Cl)cccc1SCCCCN1CCN(c2cccc3c2OCCO3)CC1 [Compound 5ag, 1-[4-(3-Chloro-2-methoxy-phenylsulfanyl)-butyl]-4-(2,3-dihydro-henzo[1,4]dioxin-5-yl)-piperazine] | – | – | 7.4 | 3.1 | –
N#Cc1cccc(OCCCCN2CCN(c3cccc4c3OCCO4)CC2)c1 [Compound 7bh, 3-{4-[4-(2,3-Dihydro-benzo[1,4]dioxin-5-yl)-piperazin-1-yl]-butoxy}-benzonitrile] | 95 | 84 | – | – | –
COc1cc(F)ccc1OCCCN1CCN(c2cccc3c2OCCO3)CC1 [Compound 1d, 1-(2,3-Dihydro-benzo[1,4]dioxin-5-yl)-4-[3-(4-fluoro-2-methoxy-phenoxy)-propyl]-piperazine] | – | – | 5.3 | 3 | –
CC1(C)COc2c(N3CCN(CCCOc4c(Cl)cc(F)cc4Cl)CC3)cc(Cl)cc21 [Compound 5bl, 1-(5-Chloro-3,3-dimethyl-2,3-dihydro-benzofuran-7-yl)-4-[3-(2,6-dichloro-4-fluoro-phenoxy)-propyl]-piperazine] | – | – | 88 | 26 | –
Clc1ccc(SCCCN2CCN(c3cccc4c3OCCO4)CC2)cc1Cl [Compound 7am, 1-[3-(3,4-Dichloro-phenylsulfanyl)-propyl]-4-(2,3-dihydro-benzo[1,4]dioxin-5-yl)-piperazine] | 100 | 99 | – | – | –
Fc1ccc(OCCCCN2CCN(c3cccc4ccsc34)CC2)c(Br)c1 [Compound 5bf, 1-Benzo[b]thiophen-7-yl-4-[4-(2-bromo-4-fluoro-phenoxy)-butyl]-piperazine] | – | – | 35 | 3.1 | –
COc1ccc(OC)c(SCCCN2CCN(c3cccc4c3OCCO4)CC2)c1 [Compound 7bk, 1-(2,3-Dihydro-benzo[1,4]dioxin-5-yl)-4-[3-(2,5-dimethoxy-phenylsulfanyl)-propyl]-piperazine] | 91 | 84 | – | – | –
N#Cc1ccc(OCCCCN2CCN(c3cccc4c3OCCO4)CC2)c(Cl)c1 [Compound 7bb, 3-Chloro-4-{4-[4-(2,3-dihydro-benzo[1,4]dioxin-5-yl)-piperazin-1-yl]-butoxy}-benzonitrile] | 101 | 94 | – | – | –
FC(F)(F)c1ccccc1SCCN1CCN(c2cccc3c2OCCO3)CC1 [Compound 7af, 1-(2,3-Dihydro-benzo[1,4]dioxin-5-yl)-4-[2-(2-trifluoromethyl-phenylsulfanyl)-ethyl]-piperazine] | 99 | 91 | – | – | –
1-[3-(Bromo-trifluoromethyl-phenylsulfanyl)-propyl]-4-(2,3-dihydro-benzo[1,4]dioxin-5-yl)-piperazine [Compound 5ap] | – | – | 6.2 | 6.3 | –
Fc1ccc(SCCN2CCN(c3cccc4c3OCCO4)CC2)cc1 [Compound 3b, 1-(2,3-Dihydro-benzo[1,4]dioxin-5-yl)-4-[2-(4-fluoro-phenylsulfanyl)-ethyl]-piperazine] | – | – | 97 | 4.3 | –
C=CCc1ccccc1OCCCCN1CCN(c2cccc3c2OCCO3)CC1 [Compound 7bp, 1-[4-(2-Allyl-phenoxy)-butyl]-4-(2,3-dihydro-benzo[1,4]dioxin-5-yl)-piperazine] | 92 | 99 | – | – | –
Brc1cc(Br)c(OCCCN2CCN(c3cccc4c3OCCO4)CC2)c(Br)c1 [Compound 5bq, 1-(2,3-Dihydro-benzof[1,4]dioxin-5-yl)-4-[3-(2,4,6-tribromo-phenoxy)-propyl]-piperazine] | – | – | 1.2 | 2.4 | –
Fc1ccccc1SCCN1CCN(c2cccc3c2OCCO3)CC1 [Compound 7aw, 1-(2,3-Dihydro-benzo[1,4]dioxin-5-yl)-4-[2-(2-fluoro-phenylsulfanyl)-ethyl]-piperazine] | 74 | 92 | – | – | –
Clc1ccc(Cl)c(SCCN2CCN(c3cccc4c3OCCO4)CC2)c1 [Compound 7at, 1-[2-(2,5-Dichloro-phenylsulfanyl)-ethyl]-4-(2,3-dihydro-henzo[1,4]dioxin-5-yl)-piperazine] | – | – | – | – | Inhibition of 3H-5-CT Binding % inhibition at 100 nM [1]: 88%; Inhibition of 3H-YM-09151-2 binding % inhibition at 50 nM [2]: 92%
